# Data taken from article PMC9724289 (The European Respiratory Journal, 2022).
# Legend:
# [1] = tested on: human pulmonary arterial smooth muscle cells (HPASMCs); assay: PDGF-BB-induced HPASMC proliferation assay; type: cell-based
# [2] = molecular target: PDGFRβ (Rattus norvegicus, UniProt Q05030); assay: Imatinib in vivo pharmacodynamic profile; details: imatinib dose selected for the in vivo study, oral gavage
# [3] = tested on: rat SU5416/Hypoxia (SU5416/H) model of PAH; assay: SU5416/H model; type: in vivo; details: for circulating IL-10 / circulating plasma TNF-α / lung mRNA and protein levels of MCP-1: day 49, vs vehicle; for lung BMPR2: end of treatment, vs vehicle
# [4] = tested on: rat monocrotaline (MCT) model; details: cited from earlier work
# [5] = tested on: MCP-1 secretion in CSF1R+ human macrophages; assay: MCP-1/CCL2 secretion in primary human macrophages; type: cell-based; details: 24-hour incubation
# [6] = molecular target: c-KIT (Rattus norvegicus, UniProt F7EWK5); assay: Lung c-KIT phosphorylation after PDGF-BB and SCF challenge in healthy rats; type: in vivo; details: inhaled; co-administered intratracheal PDGF-BB and SCF
# [7] = tested on: BMPR2; assay: Lung BMPR2 protein expression in healthy rats; type: in vivo, rat; details: inhaled, dose-dependent, over time (8, 16, 24 h post-dosing)
# [8] = tested on: rat SU5416/Hypoxia (SU5416/H) model of PAH; assay: SU5416/H model; type: in vivo; details: for RVSP end of study: 2 weeks
# [9] = tested on: rat monocrotaline pneumonectomy (MCTPN) model of PAH; assay: MCTPN model; type: in vivo
# [10] = molecular target: c-KIT (Homo sapiens, UniProt P10721); assay: cell-based
# [11] = Inhaled seralutinib pharmacokinetics in healthy rats; details: male, Sprague Dawley, rat, lung homogenate and plasma
# [12] = molecular target: CSF1R (Homo sapiens, UniProt P07333); assay: M-CSF-induced pCSF1R in primary human macrophages
# [13] = 4.6 mg·kg−1 twice daily, vs vehicle
# [14] = 2.5 mg·kg−1 twice daily inhaled, 11 days
# [15] = 2.5 mg·kg−1 twice daily, vs vehicle
# Chain of CSF1R (P07333 20-972): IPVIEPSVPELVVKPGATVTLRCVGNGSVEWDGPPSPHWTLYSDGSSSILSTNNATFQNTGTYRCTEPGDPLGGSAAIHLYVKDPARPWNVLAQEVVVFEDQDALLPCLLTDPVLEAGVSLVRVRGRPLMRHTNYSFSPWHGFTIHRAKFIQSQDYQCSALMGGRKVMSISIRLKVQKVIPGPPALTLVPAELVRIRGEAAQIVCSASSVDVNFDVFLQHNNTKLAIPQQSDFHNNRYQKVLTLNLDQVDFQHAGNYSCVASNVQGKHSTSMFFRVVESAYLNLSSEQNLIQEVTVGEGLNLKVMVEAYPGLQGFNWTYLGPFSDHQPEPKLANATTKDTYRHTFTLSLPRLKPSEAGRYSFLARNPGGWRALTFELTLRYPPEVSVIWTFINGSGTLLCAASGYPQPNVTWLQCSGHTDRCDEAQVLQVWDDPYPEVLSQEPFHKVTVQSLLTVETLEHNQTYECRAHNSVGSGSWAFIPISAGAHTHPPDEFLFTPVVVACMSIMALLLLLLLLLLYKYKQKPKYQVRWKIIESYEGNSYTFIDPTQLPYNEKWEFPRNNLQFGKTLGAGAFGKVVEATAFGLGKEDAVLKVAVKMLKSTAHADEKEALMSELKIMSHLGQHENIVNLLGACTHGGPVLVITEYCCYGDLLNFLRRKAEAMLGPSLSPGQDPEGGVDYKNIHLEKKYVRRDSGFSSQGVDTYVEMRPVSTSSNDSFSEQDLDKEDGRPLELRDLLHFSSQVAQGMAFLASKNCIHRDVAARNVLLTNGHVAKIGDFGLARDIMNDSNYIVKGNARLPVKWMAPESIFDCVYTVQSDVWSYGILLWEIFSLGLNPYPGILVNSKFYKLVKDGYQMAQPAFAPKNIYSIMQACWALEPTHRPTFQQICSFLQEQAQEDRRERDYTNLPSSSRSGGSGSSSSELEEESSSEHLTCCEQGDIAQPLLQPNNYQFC
# Chain of c-KIT (Homo sapiens, UniProt P10721) (P10721 26-976): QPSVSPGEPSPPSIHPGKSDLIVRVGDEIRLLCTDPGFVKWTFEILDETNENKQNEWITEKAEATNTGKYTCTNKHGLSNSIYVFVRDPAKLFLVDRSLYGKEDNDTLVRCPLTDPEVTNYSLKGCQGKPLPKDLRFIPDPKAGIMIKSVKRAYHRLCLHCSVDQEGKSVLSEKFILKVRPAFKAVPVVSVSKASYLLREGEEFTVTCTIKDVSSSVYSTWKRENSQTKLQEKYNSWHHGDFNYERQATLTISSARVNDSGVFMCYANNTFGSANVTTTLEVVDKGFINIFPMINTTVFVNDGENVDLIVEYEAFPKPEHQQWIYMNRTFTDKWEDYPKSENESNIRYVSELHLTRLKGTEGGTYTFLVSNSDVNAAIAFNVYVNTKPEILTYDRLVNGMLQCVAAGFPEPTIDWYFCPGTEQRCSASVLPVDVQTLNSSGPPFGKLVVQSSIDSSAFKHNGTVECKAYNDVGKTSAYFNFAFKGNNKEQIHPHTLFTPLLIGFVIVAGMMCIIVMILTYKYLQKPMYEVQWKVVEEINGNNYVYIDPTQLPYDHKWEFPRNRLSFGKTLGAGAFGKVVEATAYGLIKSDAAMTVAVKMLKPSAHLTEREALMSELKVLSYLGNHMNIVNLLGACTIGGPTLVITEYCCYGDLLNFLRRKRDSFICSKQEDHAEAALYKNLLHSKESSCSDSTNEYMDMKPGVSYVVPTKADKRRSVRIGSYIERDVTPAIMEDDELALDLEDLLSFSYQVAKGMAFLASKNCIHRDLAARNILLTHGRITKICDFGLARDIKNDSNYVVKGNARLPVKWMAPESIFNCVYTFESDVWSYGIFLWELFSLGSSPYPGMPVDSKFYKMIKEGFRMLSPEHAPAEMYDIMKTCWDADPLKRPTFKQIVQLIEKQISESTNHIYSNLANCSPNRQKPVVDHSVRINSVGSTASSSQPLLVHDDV
# Chain of PDGFRβ (Q05030 32-1097): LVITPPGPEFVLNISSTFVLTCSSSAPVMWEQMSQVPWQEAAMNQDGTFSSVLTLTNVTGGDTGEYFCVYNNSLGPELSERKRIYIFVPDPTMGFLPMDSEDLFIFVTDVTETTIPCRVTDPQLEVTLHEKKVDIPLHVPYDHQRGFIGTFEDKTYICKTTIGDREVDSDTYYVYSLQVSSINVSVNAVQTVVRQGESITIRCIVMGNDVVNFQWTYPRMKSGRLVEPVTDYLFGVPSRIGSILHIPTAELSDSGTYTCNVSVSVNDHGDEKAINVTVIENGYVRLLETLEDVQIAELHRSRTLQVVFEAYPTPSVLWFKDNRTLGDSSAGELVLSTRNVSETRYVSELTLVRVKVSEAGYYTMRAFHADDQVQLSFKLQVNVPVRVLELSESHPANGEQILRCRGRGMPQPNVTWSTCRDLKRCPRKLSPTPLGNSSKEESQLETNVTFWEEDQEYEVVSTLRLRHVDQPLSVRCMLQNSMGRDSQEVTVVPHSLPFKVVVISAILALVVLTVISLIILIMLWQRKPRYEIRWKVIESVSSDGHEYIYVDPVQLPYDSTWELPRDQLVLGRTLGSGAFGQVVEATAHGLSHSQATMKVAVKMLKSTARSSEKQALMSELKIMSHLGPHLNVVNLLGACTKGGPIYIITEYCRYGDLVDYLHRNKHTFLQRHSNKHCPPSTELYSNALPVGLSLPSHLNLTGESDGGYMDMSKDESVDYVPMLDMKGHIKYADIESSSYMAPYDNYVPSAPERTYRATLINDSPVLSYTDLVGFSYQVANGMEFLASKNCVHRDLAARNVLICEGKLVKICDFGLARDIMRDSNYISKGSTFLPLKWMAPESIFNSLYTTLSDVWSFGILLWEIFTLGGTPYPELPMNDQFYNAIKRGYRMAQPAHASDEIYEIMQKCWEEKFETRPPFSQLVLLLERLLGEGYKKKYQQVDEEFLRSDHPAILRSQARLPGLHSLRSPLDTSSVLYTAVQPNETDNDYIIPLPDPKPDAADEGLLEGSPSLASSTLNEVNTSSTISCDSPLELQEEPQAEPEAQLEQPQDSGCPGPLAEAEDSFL
# Chain of c-KIT (Rattus norvegicus, UniProt F7EWK5) (F7EWK5 26-978): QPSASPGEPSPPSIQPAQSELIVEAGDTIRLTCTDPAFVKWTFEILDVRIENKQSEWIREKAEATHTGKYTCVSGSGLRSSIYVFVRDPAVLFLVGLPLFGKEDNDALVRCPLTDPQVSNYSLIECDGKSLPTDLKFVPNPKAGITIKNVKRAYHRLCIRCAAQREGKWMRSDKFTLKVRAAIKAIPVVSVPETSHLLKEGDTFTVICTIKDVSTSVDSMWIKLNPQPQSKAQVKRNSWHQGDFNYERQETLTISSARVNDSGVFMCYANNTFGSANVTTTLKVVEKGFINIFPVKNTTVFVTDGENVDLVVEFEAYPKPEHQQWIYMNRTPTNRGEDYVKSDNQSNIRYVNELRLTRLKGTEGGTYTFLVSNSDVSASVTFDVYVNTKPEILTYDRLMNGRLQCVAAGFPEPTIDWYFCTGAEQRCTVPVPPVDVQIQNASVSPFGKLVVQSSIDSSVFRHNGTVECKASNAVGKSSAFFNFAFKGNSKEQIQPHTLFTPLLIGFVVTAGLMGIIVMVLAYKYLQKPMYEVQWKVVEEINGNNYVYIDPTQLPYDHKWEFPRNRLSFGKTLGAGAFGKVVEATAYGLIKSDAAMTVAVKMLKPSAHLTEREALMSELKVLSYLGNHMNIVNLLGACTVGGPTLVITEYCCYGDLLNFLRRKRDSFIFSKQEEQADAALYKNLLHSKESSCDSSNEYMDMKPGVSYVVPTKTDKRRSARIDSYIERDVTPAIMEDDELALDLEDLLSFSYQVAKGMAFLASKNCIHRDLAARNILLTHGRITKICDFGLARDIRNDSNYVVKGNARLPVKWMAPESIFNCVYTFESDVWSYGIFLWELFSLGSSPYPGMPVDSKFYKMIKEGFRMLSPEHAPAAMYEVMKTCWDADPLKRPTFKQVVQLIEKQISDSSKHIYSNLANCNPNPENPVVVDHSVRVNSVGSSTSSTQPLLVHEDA
smiles,measurement,setting,value
"Cc1ccc(NC(=O)c2ccc(CN3CCN(C)CC3)cc2)cc1Nc1nccc(-c2cccnc2)n1 [Imatinib, reference compound]",potency less than seralutinib,[1]; human PASMC and HLF proliferation assays,13–20 fold
same,PDGFRβ phosphorylation in healthy rats,[2],potent inhibition
same,circulating IL-10,[3],did not significantly alter
same,circulating plasma TNF-α,[3],did not significantly alter
same,lung mRNA and protein levels of MCP-1,[3],did not modulate
same,lung BMPR2,[3],no significant effect
same,effect on NT-proBNP,"[3]; imatinib 15.0 mg·kg−1 once daily oral, day 49",no significant effect
same,pulmonary hypertension in rat MCT model,[4],reversed pulmonary hypertension
"COc1ccc(-c2cncc(N[C@@H](C)c3cccc(NC(=O)c4cncc(C)c4)c3)n2)cc1OC [Seralutinib, N-[3-[(1S)-1-[[6-(3,4-dimethoxyphenyl)pyrazin-2-yl]amino]ethyl]phenyl]-5-methylpyridine-3-carboxamide]",greater potency at inhibiting proliferation compared to imatinib,[1]; human PASMCs and HLFs,13- to 20 fold
same,MCP-1 secretion,[5],reduced MCP-1 secretion in a dose-dependent manner
same,inhibition of c-KIT Y719 phosphorylation in lung,[6],43%
same,increase in lung BMPR2 protein expression,[7],2-to-2.5 fold
same,RVSP end of study,[8]; 2.5 mg·kg−1 twice daily inhaled,49.6±3.1 mmHg
same,reduction of PASP relative to vehicle,"[8]; 2.5 mg·kg−1 twice daily inhaled, end of 2-week treatment, telemetry",43%
same,RVSP end of study,[8]; 4.6 mg·kg−1 twice daily inhaled,34.7±2.2 mmHg
same,lung phospho-PDGFRβ IHC,[8]; [13],reduced intensity
same,number of grade 2 lesions (small pulmonary artery occlusion),[8]; [13],significant decrease
same,small pulmonary artery lumen-to-media area,[8]; [13],increased
same,reduction in RVSP compared to vehicle,[9]; [14],50%
same,reduction of right ventricular hypertrophy compared to vehicle,[9]; [14],49%
same,PASP lower compared to vehicle,"[9]; 2.5 mg·kg−1 twice daily inhaled, day 9",34%
same,PASP lower compared to vehicle,"[9]; 2.5 mg·kg−1 twice daily inhaled, day 10",37%
same,PASP lower compared to vehicle,"[9]; 2.5 mg·kg−1 twice daily inhaled, day 11",41%
same,lumen-to-media area,"[9]; 2.5 mg·kg−1 twice daily, vs controls",increased
same,grade 1 and 2 lesions,[9]; [15],fewer
same,perivascular fibrosis,[9]; [15],qualitative decrease
same,airway resistance,[9]; vs vehicle,similar
same,minute ventilation,[9]; vs vehicle,similar
same,respiratory rate,[9]; vs vehicle,decreased
same,tidal volume,[9]; vs vehicle,significantly improved
same,decrease of NT-proBNP versus vehicle control,"[3]; 12.8 mg·kg−1 twice daily inhaled, day 49",55%
same,small pulmonary artery muscularisation,[3]; compared to both the vehicle and imatinib-treated groups,decrease
same,SMAD1/5 phosphorylation in lung,[3]; day 49,increase
same,circulating PDGF-BB,[3]; day 49,trend towards decreased
same,circulating IL-10,[3],increased
same,circulating plasma TNF-α,[3],decreased
same,lung mRNA and protein levels of MCP-1,[3],decreased
same,effect on stroke volume index and cardiac index compared to imatinib,"[3]; echocardiography, day 49",significantly greater effect
same,lung BMPR2,[3],significantly increased
same,IC50,[10],0.0078 µM
same,Kp,[11],30
same,IC50,[12],0.0144 µM
same,"more potent than imatinib, pCSF1R",[12]; M-CSF-induced phosphorylation of CSF1R in human primary differentiated macrophages,34 fold
